The values that follow are results of earlier work, collected in US20150057617A1, “ANTI-MICROBIAL DRESSING, AN ANTI-MICROBIAL COMPOSITION AND USE THEREOF” (EMODIAL S.r.l., priority 2012, published 2015).

Each structure is given as a SMILES string.

The data set relates to fibroblasts.

Regarding `[H]/N=C(\N/C(=N/[H])NCCCCCCNC(=N)NC(=N)Nc1ccc(Cl)cc1)Nc1ccc(Cl)cc1` [chlorhexidine], the cytotoxicity for fibroblasts entry is reported as “cytotoxic for fibroblasts”.
